{
  "source": "patent US6677302B2",
  "about": "“Compositions and methods for the treatment of viral disorders” (The Trustees of Boston University, priority 1996, dated 2004)",
  "key": {"[1]": {"tested_on": "Human Neuroblastoma Cell Line, SK-N-MC", "assay": "Proliferation of neuroblastoma cells, 4 weeks continuous exposure", "format": "cell-based", "settings": "no treatment 1 × 10^8", "protocol": "Human neuroblastoma cell line SK-N-MC was studied under different conditions. In this case, the cells were grown for 4 weeks with continuous exposure to sodium butyrate or arginine butyrate, and the cell number was quantitated at the end of this time."}, "MCF-7 (breast cancer)": {"tested_on": "MCF-7 (breast cancer)", "assay": "Survival fraction after 72 hours exposure (MTT assay)", "format": "cell-based, human", "protocol": "(§1) Growth inhibition was measured by the MTT assay. Survival fraction is calculated from at least 3 experiments, and differences in survival fraction are statistically significant P<0.05, using the Paired Two-Sample For Means T-Test. […] PC-3=prostate cancer; A549=non-small cell cancer; OvCar=ovarian cancer; CaCo=colon cancer; MCF-7=breast cancer; and SW900=non-small cell lung cancer."}, "OvCar (ovarian cancer)": {"tested_on": "OvCar (ovarian cancer)", "assay": "Survival fraction after 72 hours exposure (MTT assay)", "format": "cell-based, human", "protocol": "as §1"}, "PC-3 (prostate cancer)": {"tested_on": "PC-3 (prostate cancer)", "assay": "Survival fraction after 72 hours exposure (MTT assay)", "format": "cell-based, human", "protocol": "as §1"}, "[2]": {"tested_on": "SW900 (non-small cell lung cancer)", "assay": "Survival fraction after 72 hours exposure (MTT assay)", "format": "cell-based, human", "protocol": "as §1"}, "[3]": {"assay": "Clinical toxicity in patients", "format": "in vivo, human", "settings": "for grade 3 or 4 toxicities: patients treated up to 2,000 mg/kg/day", "protocol": "Clinical experience with butyrates have been performed in children with acute myelogenous leukemia in Israel, and in children with neuroblastoma (K. Prasad, Life Sci. 27:1351-58, 1980). […] Eleven pediatric patients and twelve adults with β-hemoglobinopathies were treated with IV arginine butyrate at a starting dose of 500 mg/kg/day for 2-7 weeks. If no side effects were noted, the rate was increased by 250 mg/kg/day to a final rate of 1500 mg/kg/day in 4 patients, and 2000 mg/kg/day in 2 patients. […] This rise in BUN returned to normal within 12 hours of discontinuation of drug, and is thought to be secondary to effect of arginine upon ureagenesis. […] Peak serum levels of butyrate ranged between 0.04-0.05 mM, and butyrate was not detectable 15 minutes after infusion was discontinued. Plasma arginine levels were also rapidly cleared, with a T1/2 of 15 minutes, and baseline arginine levels were reached within 12 hours after discontinuation of infusion.\nThree patients with refractory neoplasms (breast, melanoma, adenocarcinoma, of unknown primary) have been enrolled and completed 1-2 cycles of arginine butyrate as a dose of 500 mg/kg/day over 6-8 hours for 10 days.\nThree patients (with breast cancer, bowel cancer or Hodgkins disease) have completed two cycles of arginine butyrate at a dose of 750 mg/kg/day for 10 days. […] Otherwise, there was no other objective measures of organ progressed after treatment was topped. […] There was a further resolution of the disease during the second cycle. Disease progression was noted one month after second cycle was completed. At 1000 mg/kg/day, 3 patients have been enrolled on study.\nAn inter-group dose-escalation study is being conducted in patients with refractory malignancies. There are 3 patients per group with the dose levels starting at 500 mg/kg/day, and increasing by 250 mg/kg/day per group, if toxicity permits. Doses are given by 8 hour IV infusion, daily, for 5 days times 2 weeks, with weekends off, for a total of 10 days of treatment per cycle."}, "[4]": {"tested_on": "Colonic Adenocarcinoma (HT 29)", "assay": "Differentiation and growth arrest of tumor cell line", "format": "cell-based, human", "protocol": "(§2) The effects of arginine butyrate compounds on differentiation of several human tumor cell lines were evaluated by visual inspection and by histochemical and pathological staining:\nInhibition of DNA synthesis (as measured by ^3H-thymidine incorporation) occurred by 6 hours. Expression of the proto-oncogene c-myc was decreased by 2 hours."}, "Gastric Carcinoma (AGS)": {"tested_on": "Gastric Carcinoma (AGS)", "assay": "Differentiation of tumor cell line", "format": "cell-based, human", "protocol": "as §2\nAlthough HLA antigens are expressed on normal, fully differentiated cells, they are not expressed or are minimally expressed on most neoplastic cells. In this way neoplastic cells escape recognition by the cellular arm of the immune system and are able to survive."}, "[5]": {"tested_on": "3 other neuroblastoma cell lines", "assay": "Growth inhibition over 6 days (RFU)", "format": "cell-based, human", "settings": "0.5 and 1.0 mM, FIG. 1a"}, "[6]": {"tested_on": "n-myc transcript in neuroblastoma cells", "assay": "Expression of oncogene n-myc transcript", "format": "cell-based, human", "settings": "1 mM"}, "K562": {"tested_on": "K562", "assay": "DNA fragmentation by flow cytometry", "format": "cell-based, human", "settings": "alone, FIG. 3", "from_the_text": "It has been shown that sodium butyrate can induce apoptosis in human tumors or tumor cell lines (L. A. Noorduyn et al., Histopathology 21:59, 1992)."}, "[7]": {"settings": "Table 3, 0.5 AB (0.5 mM), 72 hours"}, "[8]": {"settings": "Table 4, 0.5 AB (0.5 mM), 72 hour"}},
  "note": "Entries after “also recorded” stand apart in the source; their conditions may differ. Marks after values point to notes of the source that are not given here.",
  "data": [
    {"substance": "arginine butyrate", "values": [
      {"measurement": "Cell Number", "setting": "[1]; 0.05 mM", "result": "1 × 10^5"},
      {"measurement": "Cell Number", "setting": "[1]; 1.0 mM", "result": "<1 × 10 ^3"},
      {"measurement": "Survival Fraction", "setting": "MCF-7 (breast cancer); Table 4, 0.5 AB (0.5 mM)", "result": "0.74*"},
      {"measurement": "Survival Fraction", "setting": "MCF-7 (breast cancer); Table 4, .05 AB", "result": "0.89*"},
      {"measurement": "Survival Fraction", "setting": "OvCar (ovarian cancer); [7]", "result": "0.86**"},
      {"measurement": "Survival Fraction", "setting": "OvCar (ovarian cancer); [8]", "result": "0.88*"},
      {"measurement": "Survival Fraction", "setting": "OvCar (ovarian cancer); Table 4, .05 AB, 72 hour", "result": 0.96},
      {"measurement": "Survival Fraction", "setting": "PC-3 (prostate cancer); [7]", "result": "0.67*"},
      {"measurement": "Survival Fraction", "setting": "PC-3 (prostate cancer); [8]", "result": "0.74*"},
      {"measurement": "Survival Fraction", "setting": "PC-3 (prostate cancer); Table 4, .05 AB, 72 hour", "result": "0.82*"},
      {"measurement": "Survival Fraction", "setting": "[2]; Table 4, 0.5 AB (0.5 mM)", "result": 0.92},
      {"measurement": "Survival Fraction", "setting": "[2]; Table 4, .05 AB", "result": 0.95},
      {"measurement": "patients with grade 1 nausea/vomiting", "setting": "[3]; 500 mg/kg/day, three patients", "result": "Two of the three patients"},
      {"measurement": "patients with grade I nausea/vomiting", "setting": "[3]; 750 mg/kg/day for 10 days, three patients", "result": "One of the three patients; also recorded: One, of the three patients"},
      {"measurement": "serum BUN", "setting": "[3]; 750 mg/kg/day, one patient", "result": "transient elevation of serum BUN"},
      {"measurement": "time to resolution of BUN elevation and proteinuria after discontinuation", "setting": "[3]; 750 mg/kg/day, one patient", "result": "≤ 5", "unit": "days"},
      {"measurement": "toxic side effects", "setting": "[3]; adults, IV infusion of similar doses", "result": "no toxic side effects"},
      {"measurement": "grade 3 or 4 toxicities", "setting": "[3]; listed as Arginine butyrate", "result": "no grade 3 and no grade 4 toxicities reported"},
      {"measurement": "grade 3 or 4 toxicities", "setting": "[3]; listed as arginine butyrate", "result": "no grade 3 or 4 toxicities"},
      {"measurement": "organ specific toxicity", "setting": "[3]; recorded by principal investigators", "result": "No organ specific toxicity was recorded"},
      {"measurement": "objective toxicities (hepatic, renal, cardiac, pulmonary, hematopoietic)", "setting": "[3]; refractory neoplasms, 500 mg/kg/day over 6-8 hours for 10 days", "result": "no objective toxicities noted"},
      {"measurement": "untoward side effects", "setting": "[3]; three cancer patients, emergency basis, up to 2,000 mg/kg/day, 10 days", "result": "no untoward side effects noted"},
      {"measurement": "side effect: anorexia", "setting": "[3]; β-hemoglobinopathies, IV 500-2000 mg/kg/day", "result": "Transient anorexia developed in one patient"},
      {"measurement": "side effect: serum aminotransferase", "setting": "[3]; β-hemoglobinopathies, IV 500-2000 mg/kg/day, 2-7 weeks", "result": "transient, slight rise in serum aminotransferase"},
      {"measurement": "time for rise in BUN to return to normal after discontinuation", "setting": "[3]; β-hemoglobinopathies, continuous infusion over 2 weeks", "result": "≤ 12", "unit": "h"},
      {"measurement": "morphology and differentiation markers", "setting": "[4]", "result": "developed a mature brush border, and increased expression of sucrase/isomaltase"},
      {"measurement": "time by which expression of proto-oncogene c-myc was decreased", "setting": "[4]", "result": "≤ 2", "unit": "h"},
      {"measurement": "time by which inhibition of DNA synthesis (3H-thymidine incorporation) occurred", "setting": "[4]", "result": "≤ 6", "unit": "h"},
      {"measurement": "growth arrest", "setting": "[4]; no further growth out to 25 days", "result": "absolute growth arrest by day 3-4"},
      {"measurement": "differentiation marker expression", "setting": "Gastric Carcinoma (AGS)", "result": "began to express mucin"},
      {"measurement": "growth inhibition", "setting": "[5]", "result": "dose response growth inhibition"},
      {"measurement": "expression of n-myc transcript", "setting": "[6]", "result": "decreased approximately Mold"},
      {"measurement": "DNA fragmentation and cellular shrinkage", "setting": "K562", "result": "DNA fragmentation and cellular shrinkage"}
    ]}
  ]
}
